Source: the NIST ThermoML archive (doi:10.1021/je8000975)

Experiments:
[1] = Liquid; for speed of sound: Sing-around technique in a fixed-path interferometer
[2] = xn = mol fraction of the nth substance listed; conditions: 101 kPa, Liquid

CCCOCCO [2-propoxyethanol]
[1]
Conditions | mass density [kg/m3] | speed of sound [m/s]
293.15 K | 911.515 | 1316.6
298.15 K | 907.151 | 1298.6
303.15 K | 902.736 | 1281.1

CCCCOCCO [2-butoxyethan-1-ol] + COCCO
[2]
Conditions | mass density [kg/m3]
293.15 K, x2 = 0.0524 | 902.021
293.15 K, x2 = 0.1023 | 903.942
293.15 K, x2 = 0.1513 | 905.929
293.15 K, x2 = 0.2009 | 908.026
293.15 K, x2 = 0.2491 | 910.172
293.15 K, x2 = 0.3006 | 912.586
293.15 K, x2 = 0.3411 | 914.561
293.15 K, x2 = 0.3986 | 917.531
293.15 K, x2 = 0.4484 | 920.249
293.15 K, x2 = 0.4994 | 923.189
293.15 K, x2 = 0.5492 | 926.262
293.15 K, x2 = 0.5987 | 929.459
293.15 K, x2 = 0.6489 | 932.911
293.15 K, x2 = 0.7291 | 938.888
293.15 K, x2 = 0.7487 | 940.45
293.15 K, x2 = 0.7996 | 944.683
293.15 K, x2 = 0.8491 | 949.097
293.15 K, x2 = 0.8992 | 953.883
293.15 K, x2 = 0.9495 | 959.058
298.15 K, x2 = 0.0522 | 897.844
298.15 K, x2 = 0.1029 | 899.781
298.15 K, x2 = 0.15 | 901.679
298.15 K, x2 = 0.2019 | 903.86
298.15 K, x2 = 0.2489 | 905.939
298.15 K, x2 = 0.2999 | 908.306
298.15 K, x2 = 0.3514 | 910.818
298.15 K, x2 = 0.3994 | 913.289
298.15 K, x2 = 0.449 | 915.99
298.15 K, x2 = 0.4755 | 917.493
298.15 K, x2 = 0.4987 | 918.836
298.15 K, x2 = 0.5985 | 925.072
298.15 K, x2 = 0.6476 | 928.432
298.15 K, x2 = 0.6975 | 932.045
298.15 K, x2 = 0.7481 | 935.968
298.15 K, x2 = 0.7988 | 940.157
298.15 K, x2 = 0.8476 | 944.484
298.15 K, x2 = 0.8993 | 949.386
298.15 K, x2 = 0.9478 | 954.336
303.15 K, x2 = 0.0483 | 893.466
303.15 K, x2 = 0.1002 | 895.434
303.15 K, x2 = 0.1519 | 897.493
303.15 K, x2 = 0.1997 | 899.493
303.15 K, x2 = 0.2393 | 901.221
303.15 K, x2 = 0.2476 | 901.59
303.15 K, x2 = 0.3501 | 906.436
303.15 K, x2 = 0.3985 | 908.906
303.15 K, x2 = 0.4499 | 911.682
303.15 K, x2 = 0.4966 | 914.34
303.15 K, x2 = 0.5031 | 914.737
303.15 K, x2 = 0.6119 | 921.563
303.15 K, x2 = 0.6471 | 923.963
303.15 K, x2 = 0.7275 | 929.874
303.15 K, x2 = 0.7491 | 931.575
303.15 K, x2 = 0.7969 | 935.498
303.15 K, x2 = 0.8463 | 939.82
303.15 K, x2 = 0.8986 | 944.764
303.15 K, x2 = 0.9475 | 949.713

COCCO [2-methoxyethan-1-ol]
[1]
Conditions | mass density [kg/m3] | speed of sound [m/s]
293.15 K | 964.656 | 1359.2
298.15 K | 960.088 | 1341.6
303.15 K | 955.471 | 1324.3

COCCOCCO [2-(2-methoxyethoxy)ethanol] + COCCO
[2]
Conditions | mass density [kg/m3]
293.15 K, x2 = 0.1005 | 1016.02
293.15 K, x2 = 0.1489 | 1014.09
293.15 K, x2 = 0.1983 | 1012.06
293.15 K, x2 = 0.2003 | 1011.98
293.15 K, x2 = 0.2517 | 1009.77
293.15 K, x2 = 0.2969 | 1007.77
293.15 K, x2 = 0.2993 | 1007.67
293.15 K, x2 = 0.3475 | 1005.45
293.15 K, x2 = 0.3505 | 1005.31
293.15 K, x2 = 0.3985 | 1003.01
293.15 K, x2 = 0.45 | 1000.45
293.15 K, x2 = 0.5003 | 997.85
293.15 K, x2 = 0.5998 | 992.362
293.15 K, x2 = 0.6476 | 989.566
293.15 K, x2 = 0.6993 | 986.398
293.15 K, x2 = 0.7475 | 983.311
293.15 K, x2 = 0.7485 | 983.242
293.15 K, x2 = 0.7971 | 979.992
293.15 K, x2 = 0.8465 | 976.527
293.15 K, x2 = 0.8977 | 972.767
293.15 K, x2 = 0.9483 | 968.858
298.15 K, x2 = 0.0523 | 1013.47
298.15 K, x2 = 0.1027 | 1011.52
298.15 K, x2 = 0.1523 | 1009.54
298.15 K, x2 = 0.1974 | 1007.67
298.15 K, x2 = 0.2507 | 1005.39
298.15 K, x2 = 0.294 | 1003.47
298.15 K, x2 = 0.3472 | 1001.02
298.15 K, x2 = 0.3976 | 998.612
298.15 K, x2 = 0.4502 | 995.991
298.15 K, x2 = 0.4981 | 993.508
298.15 K, x2 = 0.5 | 993.405
298.15 K, x2 = 0.5455 | 990.948
298.15 K, x2 = 0.5989 | 987.943
298.15 K, x2 = 0.6471 | 985.114
298.15 K, x2 = 0.7005 | 981.838
298.15 K, x2 = 0.749 | 978.717
298.15 K, x2 = 0.7983 | 975.395
298.15 K, x2 = 0.846 | 972.046
298.15 K, x2 = 0.8832 | 969.324
298.15 K, x2 = 0.8956 | 968.391
298.15 K, x2 = 0.9483 | 964.311
303.15 K, x2 = 0.0536 | 1008.92
303.15 K, x2 = 0.1018 | 1007.06
303.15 K, x2 = 0.15 | 1005.13
303.15 K, x2 = 0.2011 | 1003.02
303.15 K, x2 = 0.2499 | 1000.92
303.15 K, x2 = 0.2515 | 1000.85
303.15 K, x2 = 0.301 | 998.636
303.15 K, x2 = 0.3527 | 996.24
303.15 K, x2 = 0.3986 | 994.036
303.15 K, x2 = 0.4493 | 991.5
303.15 K, x2 = 0.5028 | 988.711
303.15 K, x2 = 0.5499 | 986.158
303.15 K, x2 = 0.6 | 983.323
303.15 K, x2 = 0.6482 | 980.488
303.15 K, x2 = 0.6941 | 977.672
303.15 K, x2 = 0.7485 | 974.182
303.15 K, x2 = 0.7979 | 970.854
303.15 K, x2 = 0.8989 | 963.546
303.15 K, x2 = 0.9476 | 959.766
